Experimental data reported in ChEMBL document CHEMBL1687697 (ACS Med Chem Lett, 2010).
The source made the active and inactive calls. The calls are words filed in the database; no cut-off is given here.

Key:
[1] = target: Vascular endothelial growth factor receptor 2 (Homo sapiens, UniProt P35968); experiment: Inhibition of VEGFR2 after 60 mins by radiometric assay
DU-145 [2] = experiment: Induction of apoptosis in human DU145 cells assessed as necrotic cells at 10 uM after 72 hrs by AnnexinV-propidium iodide based FACS flow cytometry; format: functional
DU-145 [3] = experiment: Effect on phosphorylated JAK1 protein level in human DU145 cells at 0.1 to 2 uM after 2 hrs by Western blot analysis; format: functional, cell-based
[4] = target: Signal transducer and activator of transcription 3 (Homo sapiens) (UniProt P40763); experiment: Inhibition of STAT3 interaction with DNA binding site in human DU145 cells at 05 to 10 uM after 2 hrs by EMSA; format: cell-based; details: DU-145
DU-145 [5] = experiment: Induction of apoptosis in human DU145 cells assessed as viable cells at 10 uM after 72 hrs by AnnexinV-propidium iodide based FACS flow cytometry; format: functional; details: DU-145, 72 h, read-out: Activity
DU-145 [6] = experiment: Cell cycle arrest in human DU145 cells assessed as accumulation in G2/M phase at 1 uM after 24 hrs by FACS flow cytometry; format: functional
DU-145 [7] = experiment: Effect on JAK1 protein level in human DU145 cells at 0.1 to 2 uM after 2 hrs by Western blot analysis; format: functional, cell-based
Angiopoietin-1 receptor = Angiopoietin-1 receptor (Homo sapiens, UniProt Q02763); experiment: Inhibition of TIE2 after 60 mins by radiometric assay
[8] = Inhibition of Raf Y340D/Y341D mutant after 60 mins by radiometric assay
[9] = target: Tyrosine-protein kinase Lyn (Homo sapiens, UniProt P07948); experiment: Inhibition of LYN after 60 mins by radiometric assay
DU-145 [10] = experiment: Cell cycle arrest in human DU145 cells assessed as accumulation in G0/G1 phase at 0.2 uM after 24 hrs by FACS flow cytometry; format: functional
DU-145 [11] = experiment: Decrease in Bcl-Xl protein level in human DU145 cells at 0.1 to 2 uM after 2 hrs by Western blot analysis; format: functional, cell-based
Aurora kinase A = Aurora kinase A (Homo sapiens, UniProt O14965); experiment: Inhibition of Aurora-A after 60 mins by radiometric assay
DU-145 [12] = experiment: Effect on Tyr416 phosphorylated-Src protein level in human DU145 cells at 0.1 to 2 uM after 24 hrs by Western blot analysis; format: functional, cell-based
DU-145 [13] = experiment: Effect on phosphorylated JAK1 protein level in human DU145 cells at 0.1 to 2 uM after 24 hrs by Western blot analysis; format: functional, cell-based
DU-145 [14] = experiment: Effect on Tyr527 phosphorylated-Src protein level in human DU145 cells at 0.1 to 2 uM after 24 hrs by Western blot analysis; format: functional, cell-based
DU-145 [15] = experiment: Effect on JAK2 protein level in human DU145 cells at 0.1 to 2 uM after 2 hrs by Western blot analysis; format: functional, cell-based
DU-145 [16] = experiment: Cell cycle arrest in human DU145 cells assessed as accumulation in G2/M phase at 0.2 uM after 24 hrs by FACS flow cytometry; format: functional
DU-145 [17] = experiment: Effect on Src protein level in human DU145 cells at 0.1 to 2 uM after 24 hrs by Western blot analysis; format: functional, cell-based
DU-145 [18] = experiment: Induction of apoptosis in human DU145 cells assessed as early apoptotic cells at 1 uM after 72 hrs by AnnexinV-propidium iodide based FACS flow cytometry; format: functional
DU-145 [19] = experiment: Induction of apoptosis in human DU145 cells assessed as viable cells at 1 uM after 72 hrs by AnnexinV-propidium iodide based FACS flow cytometry; format: functional; details: DU-145, 72 h, read-out: Activity
A549 = experiment: Antiproliferative activity against human A549 cells after 72 hrs by MTT assay; format: functional, cell-based; details: A549, 72 h
DU-145 [20] = experiment: Induction of apoptosis in human DU145 cells assessed as necrotic cells at 5 uM after 72 hrs by AnnexinV-propidium iodide based FACS flow cytometry; format: functional
[21] = target: Tyrosine-protein kinase ABL1 (Homo sapiens, UniProt P00519); experiment: Inhibition of Abl1 after 60 mins by radiometric assay
DU-145 [22] = experiment: Cell cycle arrest in human DU145 cells assessed as accumulation in S phase at 1 uM after 24 hrs by FACS flow cytometry; format: functional
DU-145 [23] = experiment: Cell cycle arrest in human DU145 cells assessed as accumulation in S phase at 0.2 uM after 24 hrs by FACS flow cytometry; format: functional
DU-145 [24] = experiment: Cell cycle arrest in human DU145 cells assessed as accumulation in S phase at 0.5 uM after 24 hrs by FACS flow cytometry; format: functional
DU-145 [25] = experiment: Induction of apoptosis in human DU145 cells assessed as late apoptotic cells at 5 uM after 72 hrs by AnnexinV-propidium iodide based FACS flow cytometry; format: functional
[26] = target: RAC-alpha serine/threonine-protein kinase (Homo sapiens, UniProt P31749); experiment: Inhibition of Akt1 after 60 mins by radiometric assay
DU-145 [27] = experiment: Induction of apoptosis in human DU145 cells assessed as late apoptotic cells at 1 uM after 72 hrs by AnnexinV-propidium iodide based FACS flow cytometry; format: functional
HT-29 = experiment: Antiproliferative activity against human HT-29 cells after 72 hrs by MTT assay; format: functional, cell-based; details: HT-29, 72 h
DU-145 [28] = experiment: Effect on JAK1 protein level in human DU145 cells at 0.1 to 2 uM after 24 hrs by Western blot analysis; format: functional, cell-based
[29] = target: Mitogen-activated protein kinase 8 (Homo sapiens, UniProt P45983); experiment: Inhibition of JNK1 after 60 mins by radiometric assay
[30] = target: Signal transducer and activator of transcription 3 (Homo sapiens) (UniProt P40763); experiment: Inhibition of STAT3 in human HeLa cells at 5 uM after 24 hrs by luciferase reporter gene assay; format: cell-based
DU-145 [31] = experiment: Downregulation of Mcl-1 protein in human DU145 cells at 0.1 to 2 uM after 2 hrs by Western blot analysis; format: functional, cell-based
[32] = target: Protein kinase C alpha type (Homo sapiens, UniProt P17252); experiment: Inhibition of PKC-alpha after 60 mins by radiometric assay

Signal transducer and activator of transcription 3 (Homo sapiens), sequence (P40763 whole entry): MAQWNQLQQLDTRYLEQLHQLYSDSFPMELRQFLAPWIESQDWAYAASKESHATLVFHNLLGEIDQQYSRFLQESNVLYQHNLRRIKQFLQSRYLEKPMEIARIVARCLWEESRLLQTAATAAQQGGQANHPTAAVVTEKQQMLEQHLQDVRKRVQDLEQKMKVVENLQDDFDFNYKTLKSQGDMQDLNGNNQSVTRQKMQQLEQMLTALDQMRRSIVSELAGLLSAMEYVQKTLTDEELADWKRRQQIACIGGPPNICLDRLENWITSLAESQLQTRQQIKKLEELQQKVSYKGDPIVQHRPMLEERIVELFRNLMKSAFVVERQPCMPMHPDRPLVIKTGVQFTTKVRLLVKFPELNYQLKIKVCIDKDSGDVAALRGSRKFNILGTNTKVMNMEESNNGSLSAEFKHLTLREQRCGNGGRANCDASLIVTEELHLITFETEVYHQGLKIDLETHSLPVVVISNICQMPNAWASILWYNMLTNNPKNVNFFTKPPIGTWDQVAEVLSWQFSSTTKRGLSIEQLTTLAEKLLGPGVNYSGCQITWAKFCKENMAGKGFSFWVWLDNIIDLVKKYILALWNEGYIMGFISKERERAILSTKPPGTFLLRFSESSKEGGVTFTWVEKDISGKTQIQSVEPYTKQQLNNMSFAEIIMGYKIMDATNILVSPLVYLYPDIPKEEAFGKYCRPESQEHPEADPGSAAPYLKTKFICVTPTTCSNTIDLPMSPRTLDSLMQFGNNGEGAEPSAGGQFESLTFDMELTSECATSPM
Angiopoietin-1 receptor, sequence (Q02763 whole entry): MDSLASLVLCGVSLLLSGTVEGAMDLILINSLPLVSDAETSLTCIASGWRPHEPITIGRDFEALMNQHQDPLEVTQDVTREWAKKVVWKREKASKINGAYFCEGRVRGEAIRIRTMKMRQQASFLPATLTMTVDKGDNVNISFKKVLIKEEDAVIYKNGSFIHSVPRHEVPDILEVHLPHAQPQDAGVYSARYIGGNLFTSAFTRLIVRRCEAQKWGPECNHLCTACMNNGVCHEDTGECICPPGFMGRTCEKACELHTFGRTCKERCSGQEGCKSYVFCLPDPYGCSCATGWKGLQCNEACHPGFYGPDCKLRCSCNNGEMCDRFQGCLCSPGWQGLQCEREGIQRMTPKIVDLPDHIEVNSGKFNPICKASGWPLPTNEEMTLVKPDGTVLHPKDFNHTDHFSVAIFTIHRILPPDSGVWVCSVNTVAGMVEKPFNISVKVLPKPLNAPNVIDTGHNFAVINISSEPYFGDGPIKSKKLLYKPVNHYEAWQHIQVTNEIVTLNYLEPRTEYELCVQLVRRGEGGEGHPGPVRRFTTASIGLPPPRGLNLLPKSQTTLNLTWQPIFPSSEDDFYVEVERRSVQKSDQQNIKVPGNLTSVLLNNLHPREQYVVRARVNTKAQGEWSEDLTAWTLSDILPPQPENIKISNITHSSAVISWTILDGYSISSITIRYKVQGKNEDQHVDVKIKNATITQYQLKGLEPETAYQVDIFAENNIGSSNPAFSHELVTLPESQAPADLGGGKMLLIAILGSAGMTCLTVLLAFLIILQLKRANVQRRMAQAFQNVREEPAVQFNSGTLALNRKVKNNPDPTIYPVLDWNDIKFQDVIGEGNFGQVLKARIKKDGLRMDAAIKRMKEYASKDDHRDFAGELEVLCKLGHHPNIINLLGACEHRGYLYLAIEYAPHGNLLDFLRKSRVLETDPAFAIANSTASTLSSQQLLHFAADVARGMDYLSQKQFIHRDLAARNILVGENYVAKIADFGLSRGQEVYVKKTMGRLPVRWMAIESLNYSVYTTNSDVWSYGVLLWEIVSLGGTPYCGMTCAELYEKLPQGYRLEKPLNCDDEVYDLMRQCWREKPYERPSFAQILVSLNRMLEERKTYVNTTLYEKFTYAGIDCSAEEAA
RAC-alpha serine/threonine-protein kinase, sequence (P31749 whole entry): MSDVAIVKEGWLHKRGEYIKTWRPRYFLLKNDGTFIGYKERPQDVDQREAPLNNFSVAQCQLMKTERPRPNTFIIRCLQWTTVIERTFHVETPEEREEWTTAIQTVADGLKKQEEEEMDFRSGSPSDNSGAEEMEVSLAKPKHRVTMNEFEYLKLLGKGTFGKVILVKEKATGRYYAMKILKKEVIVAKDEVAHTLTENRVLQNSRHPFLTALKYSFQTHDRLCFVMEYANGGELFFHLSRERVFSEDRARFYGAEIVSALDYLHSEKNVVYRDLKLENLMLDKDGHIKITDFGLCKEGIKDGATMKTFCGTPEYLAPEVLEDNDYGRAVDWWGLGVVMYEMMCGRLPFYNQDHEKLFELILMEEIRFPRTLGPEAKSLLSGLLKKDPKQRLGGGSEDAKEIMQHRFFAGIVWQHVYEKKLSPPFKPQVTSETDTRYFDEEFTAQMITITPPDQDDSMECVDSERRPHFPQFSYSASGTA
Tyrosine-protein kinase Lyn, sequence (P07948 whole entry): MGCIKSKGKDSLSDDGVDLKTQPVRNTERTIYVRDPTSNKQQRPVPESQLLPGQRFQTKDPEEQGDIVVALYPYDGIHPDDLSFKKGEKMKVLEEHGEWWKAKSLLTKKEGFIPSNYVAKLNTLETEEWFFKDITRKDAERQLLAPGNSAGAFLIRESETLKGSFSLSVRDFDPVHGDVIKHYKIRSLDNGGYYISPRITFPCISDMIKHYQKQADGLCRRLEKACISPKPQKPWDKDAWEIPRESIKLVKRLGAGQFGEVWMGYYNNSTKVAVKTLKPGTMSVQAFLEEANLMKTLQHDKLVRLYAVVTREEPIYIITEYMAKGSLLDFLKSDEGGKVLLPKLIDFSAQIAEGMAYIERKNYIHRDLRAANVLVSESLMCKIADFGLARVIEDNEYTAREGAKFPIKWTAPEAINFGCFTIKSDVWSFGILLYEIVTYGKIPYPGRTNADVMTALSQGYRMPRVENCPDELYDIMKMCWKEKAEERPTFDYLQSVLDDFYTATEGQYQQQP
Vascular endothelial growth factor receptor 2, sequence (P35968 whole entry): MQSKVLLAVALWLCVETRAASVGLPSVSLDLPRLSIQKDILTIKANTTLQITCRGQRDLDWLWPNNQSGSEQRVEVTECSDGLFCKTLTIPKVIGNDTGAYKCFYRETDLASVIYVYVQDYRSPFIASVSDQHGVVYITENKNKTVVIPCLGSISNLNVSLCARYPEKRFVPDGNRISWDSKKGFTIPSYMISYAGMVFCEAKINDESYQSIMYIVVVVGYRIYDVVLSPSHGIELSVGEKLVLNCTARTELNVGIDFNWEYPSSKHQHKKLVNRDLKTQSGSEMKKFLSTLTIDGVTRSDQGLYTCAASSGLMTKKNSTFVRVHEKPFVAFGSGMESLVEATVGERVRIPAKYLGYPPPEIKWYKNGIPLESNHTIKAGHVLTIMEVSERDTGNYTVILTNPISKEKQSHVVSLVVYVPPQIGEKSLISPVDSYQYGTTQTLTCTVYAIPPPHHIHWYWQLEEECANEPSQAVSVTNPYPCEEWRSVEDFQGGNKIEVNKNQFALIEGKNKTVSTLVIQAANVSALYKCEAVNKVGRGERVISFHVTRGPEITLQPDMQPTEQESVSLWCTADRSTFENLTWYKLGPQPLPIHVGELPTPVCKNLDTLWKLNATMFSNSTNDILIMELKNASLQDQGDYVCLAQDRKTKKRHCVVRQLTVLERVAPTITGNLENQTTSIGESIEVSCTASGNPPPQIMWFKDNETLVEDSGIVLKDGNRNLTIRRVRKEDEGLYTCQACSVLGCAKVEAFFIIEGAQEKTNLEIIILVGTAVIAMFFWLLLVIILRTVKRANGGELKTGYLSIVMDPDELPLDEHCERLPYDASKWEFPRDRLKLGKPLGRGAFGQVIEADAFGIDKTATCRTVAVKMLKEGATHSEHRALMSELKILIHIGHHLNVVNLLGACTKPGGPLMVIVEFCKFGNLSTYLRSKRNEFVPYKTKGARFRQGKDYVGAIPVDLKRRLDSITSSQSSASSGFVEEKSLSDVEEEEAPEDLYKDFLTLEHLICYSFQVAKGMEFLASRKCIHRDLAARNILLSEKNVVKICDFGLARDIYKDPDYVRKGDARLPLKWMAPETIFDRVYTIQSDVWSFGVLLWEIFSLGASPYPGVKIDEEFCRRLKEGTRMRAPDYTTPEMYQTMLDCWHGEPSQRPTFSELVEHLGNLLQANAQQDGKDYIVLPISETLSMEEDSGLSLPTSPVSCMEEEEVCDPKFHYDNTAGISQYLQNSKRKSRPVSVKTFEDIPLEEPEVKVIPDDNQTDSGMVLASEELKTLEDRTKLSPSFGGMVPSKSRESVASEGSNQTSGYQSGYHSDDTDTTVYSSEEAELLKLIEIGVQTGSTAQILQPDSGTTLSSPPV

O=C(Nc1ccc([N+](=O)[O-])cc1Cl)c1cc(Cl)ccc1O [NICLOSAMIDE]
IC50 [1]: 23.1 µM
Activity (DU-145 [2]): 2.43%
Activity (DU-145 [3]): inactive
inhibition [4]: Active
viability at 10 µM (DU-145 [5]): 43.4%
Activity (DU-145 [6]): 7.83%
Activity (DU-145 [7]): inactive
IC50 (Angiopoietin-1 receptor): 67.8 µM
IC50 [8]: > 100 µM
IC50 [9]: 23.8 µM
Activity (DU-145 [10]): 48.4%
Activity (DU-145 [11]): Active
IC50 (Aurora kinase A): 54.1 µM
Activity (DU-145 [12]): inactive
Activity (DU-145 [13]): inactive
Activity (DU-145 [14]): inactive
Activity (DU-145 [15]): inactive
Activity (DU-145 [16]): 13.11%
Activity (DU-145 [17]): inactive
Activity (DU-145 [18]): 4.84%
viability at 1 µM (DU-145 [19]): 83.9%
IC50 (A549): 3000 nM
Activity (DU-145 [20]): 2.27%
IC50 [21]: > 100 µM
Activity (DU-145 [22]): 16.82%
Activity (DU-145 [23]): 38.4%
Activity (DU-145 [24]): 32.84%
Activity (DU-145 [25]): 25.41%
IC50 [26]: 59.4 µM
Activity (DU-145 [27]): 8.16%
IC50 (HT-29): 7.2 µM
Activity (DU-145 [28]): inactive
IC50 [29]: > 100 µM
inhibition [30]: Active
Activity (DU-145 [31]): Active
IC50 [32]: > 100 µM
